Literature values, collected in US5385922A, “Thiazolidine derivatives” (Cedona Pharmaceuticals B.V., priority 1990, dated 1995).

Legend:
[1] = system: rat aorta contracted using phenylephrine; conditions: cited from earlier work
[2] = system: angiotensin converting enzyme (ACE); conditions: literature, WO 89/12627, cited from earlier work

**Q.** With `C[C@H](CSN=O)C(=O)N1CCC[C@H]1C(=O)O` [S-ni-trosocaptopril] as the compound, how does the IC50 ([1]; rat aorta contracted using phenylephrine, read-out: relaxing effect via the NO portion, IC50) read?
**A.** ~100 nM

**Q.** What about the “relaxing concentration relative to ACE-inhibiting concentration” value ([1]; relaxation IC50 vs ACE-inhibition IC50) of the same compound?
**A.** about 100 times higher

**Q.** And the “ACE-inhibiting effect compared with captopril (in words)” value [2]?
**A.** comparable to that of captopril

**Q.** What about the IC50 ([2]; read-out: ACE-inhibiting effect IC50) of the same compound?
**A.** ~1 nM
